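Values below derive from 48-hour exposures of cells grown in 96-well plates, with endpoints linearly interpolated between the two concentrations bracketing the appropriate inhibition level. Here, GI50 denotes the concentration required for 50% inhibition of growth.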 The source made the active and inactive calls. No stated cut-off is given here; in the data, active = GI50 up to about 1.1 µM and inactive = higher.
Tests used:
Test in all cases: DTP human tumour cell line panel, 48 h
786-0 = test system: 786-0
A498 = test system: A498
A549 = test system: A549
ACHN = test system: ACHN
CAKI-1 = test system: CAKI-1
CCRF-CEM = test system: CCRF-CEM
COLO 205 = test system: COLO 205
DLD-1 = test system: DLD-1
EKVX = test system: EKVX
HCC 2998 = test system: HCC 2998
HCT-116 = test system: HCT-116
HCT-15 = test system: HCT-15
HL-60 = test system: HL-60
HOP-92 = test system: HOP-92
HT-29 = test system: HT-29
IGROV-1 = test system: IGROV-1
K562 = test system: K562
KM-20L2 = test system: KM-20L2
KM12 = test system: KM12
LOX IMVI = test system: LOX IMVI
LXFL 529 = test system: LXFL 529
M14 = test system: M14
M19-MEL = test system: M19-MEL
MOLT-4 = test system: MOLT-4
Malme-3M = test system: Malme-3M
NCI-H23 = test system: NCI-H23
NCI-H460 = test system: NCI-H460
NCI-H522 = test system: NCI-H522
OVCAR-3 = test system: OVCAR-3
OVCAR-4 = test system: OVCAR-4
OVCAR-5 = test system: OVCAR-5
OVCAR-8 = test system: OVCAR-8
RPMI-8226 = test system: RPMI-8226
RXF 393 = test system: RXF 393
SF-268 = test system: SF-268
SF-295 = test system: SF-295
SF-539 = test system: SF-539
SK-MEL-28 = test system: SK-MEL-28
SK-MEL-2 = test system: SK-MEL-2
SK-MEL-5 = test system: SK-MEL-5
SK-OV-3 = test system: SK-OV-3
SN12C = test system: SN12C
SNB-19 = test system: SNB-19
SNB-78 = test system: SNB-78
SW-620 = test system: SW-620
TK-10 = test system: TK-10
U-251 = test system: U-251
UACC-257 = test system: UACC-257
UACC-62 = test system: UACC-62
UO-31 = test system: UO-31
XF498 = test system: XF498
BT-549 = test system: BT-549
DMS-114 = test system: DMS-114
DMS-273 = test system: DMS-273
DU-145 = test system: DU-145
HOP-62 = test system: HOP-62
Hs-578T = test system: Hs-578T
MCF7 = test system: MCF7
MDA-MB-231 = test system: MDA-MB-231
MDA-MB-435 = test system: MDA-MB-435
MDA-N = test system: MDA-N
NCI-H226 = test system: NCI-H226
NCI/ADR-RES = test system: NCI/ADR-RES
PC-3 = test system: PC-3
SNB-75 = test system: SNB-75
SR = test system: SR

COc1cc(/C=C2/C(=O)N(C(=O)c3ccc(Cl)cc3)N=C2C)cc(OC)c1OC
GI50 (786-0): > 100 µM (inactive)
GI50 (A498): > 100 µM (inactive)
GI50 (A549): > 100 µM (inactive)
GI50 (ACHN): > 100 µM (inactive)
GI50 (CAKI-1): > 100 µM (inactive)
GI50 (CCRF-CEM): > 100 µM (inactive)
GI50 (COLO 205): > 100 µM (inactive)
GI50 (DLD-1): > 100 µM (inactive)
GI50 (EKVX): > 100 µM (inactive)
GI50 (HCC 2998): > 100 µM (inactive)
GI50 (HCT-116): > 100 µM (inactive)
GI50 (HCT-15): > 100 µM
GI50 (HL-60): > 100 µM (inactive)
GI50 (HOP-92): > 100 µM (inactive)
GI50 (HT-29): > 100 µM (inactive)
GI50 (IGROV-1): > 100 µM (inactive)
GI50 (K562): > 100 µM (inactive)
GI50 (KM-20L2): > 100 µM (inactive)
GI50 (KM12): > 100 µM (inactive)
GI50 (LOX IMVI): > 100 µM (inactive)
GI50 (LXFL 529): > 100 µM (inactive)
GI50 (M14): > 100 µM (inactive)
GI50 (M19-MEL): > 100 µM (inactive)
GI50 (MOLT-4): > 100 µM (inactive)
GI50 (Malme-3M): > 100 µM (inactive)
GI50 (NCI-H23): > 100 µM (inactive)
GI50 (NCI-H460): > 100 µM (inactive)
GI50 (NCI-H522): > 100 µM (inactive)
GI50 (OVCAR-3): > 100 µM (inactive)
GI50 (OVCAR-4): > 100 µM (inactive)
GI50 (OVCAR-5): > 100 µM (inactive)
GI50 (OVCAR-8): > 100 µM (inactive)
GI50 (RPMI-8226): > 100 µM (inactive)
GI50 (RXF 393): > 100 µM (inactive)
GI50 (SF-268): > 100 µM (inactive)
GI50 (SF-295): > 100 µM (inactive)
GI50 (SF-539): > 100 µM (inactive)
GI50 (SK-MEL-28): > 100 µM (inactive)
GI50 (SK-MEL-2): > 100 µM (inactive)
GI50 (SK-MEL-5): > 100 µM (inactive)
GI50 (SK-OV-3): > 100 µM (inactive)
GI50 (SN12C): > 100 µM (inactive)
GI50 (SNB-19): > 100 µM (inactive)
GI50 (SNB-78): > 100 µM (inactive)
GI50 (SW-620): > 100 µM (inactive)
GI50 (TK-10): > 100 µM (inactive)
GI50 (U-251): > 100 µM (inactive)
GI50 (UACC-257): > 100 µM (inactive)
GI50 (UACC-62): > 100 µM (inactive)
GI50 (UO-31): > 100 µM (inactive)
GI50 (XF498): > 100 µM (inactive)

COc1ccc(CC(C#N)c2cc(OC)c(OC)c(OC)c2)cc1 (stereo unspecified)
GI50 (786-0): 0.125 µM (active)
GI50 (A498): 0.179 µM (active)
GI50 (A549): 0.0525 µM (active)
GI50 (ACHN): 0.796 µM (active)
GI50 (BT-549): 11.9 µM (inactive)
GI50 (CAKI-1): 0.0455 µM (active)
GI50 (CCRF-CEM): 0.0668 µM (active)
GI50 (COLO 205): 0.029 µM (active)
GI50 (DLD-1): 0.11 µM (active)
GI50 (DMS-114): 0.0418 µM (active)
GI50 (DMS-273): 0.0303 µM (active)
GI50 (DU-145): 0.0422 µM (active)
GI50 (EKVX): 1.56 µM (inactive)
GI50 (HCC 2998): < 0.0416 µM (active)
GI50 (HCT-116): 0.0466 µM (active)
GI50 (HCT-15): 0.0276 µM
GI50 (HL-60): 0.0258 µM (active)
GI50 (HOP-62): 0.0869 µM (active)
GI50 (HOP-92): 0.366 µM (active)
GI50 (HT-29): 0.029 µM (active)
GI50 (Hs-578T): 0.0286 µM (active)
GI50 (IGROV-1): 0.0809 µM (active)
GI50 (K562): 0.0248 µM (active)
GI50 (KM-20L2): 0.0541 µM (active)
GI50 (KM12): 0.0194 µM (active)
GI50 (LOX IMVI): 0.0328 µM (active)
GI50 (LXFL 529): 0.171 µM (active)
GI50 (M14): 0.0472 µM (active)
GI50 (M19-MEL): 0.0676 µM (active)
GI50 (MCF7): < 0.016 µM (active)
GI50 (MDA-MB-231): 0.0561 µM (active)
GI50 (MDA-MB-435): < 0.01 µM (active)
GI50 (MDA-N): < 0.01 µM (active)
GI50 (MOLT-4): 0.121 µM (active)
GI50 (Malme-3M): 0.0361 µM (active)
GI50 (NCI-H226): 0.773 µM (active)
GI50 (NCI-H23): 0.109 µM (active)
GI50 (NCI-H460): 0.0409 µM (active)
GI50 (NCI-H522): 0.0267 µM (active)
GI50 (NCI/ADR-RES): 0.0185 µM (active)
GI50 (OVCAR-3): 0.0279 µM (active)
GI50 (OVCAR-4): 7.29 µM (inactive)
GI50 (OVCAR-5): 6.27 µM (inactive)
GI50 (OVCAR-8): 0.135 µM (active)
GI50 (PC-3): 0.014 µM (active)
GI50 (RPMI-8226): 0.0741 µM (active)
GI50 (RXF 393): 0.0575 µM (active)
GI50 (SF-268): 0.204 µM (active)
GI50 (SF-295): 0.0184 µM (active)
GI50 (SF-539): 0.0436 µM (active)
GI50 (SK-MEL-28): 0.0619 µM (active)
GI50 (SK-MEL-2): 0.0775 µM (active)
GI50 (SK-MEL-5): 0.0266 µM (active)
GI50 (SK-OV-3): 0.0474 µM (active)
GI50 (SN12C): 0.135 µM (active)
GI50 (SNB-19): 0.0986 µM (active)
GI50 (SNB-75): 0.0475 µM (active)
GI50 (SNB-78): 0.227 µM (active)
GI50 (SR): 0.0206 µM (active)
GI50 (SW-620): 0.0236 µM (active)
GI50 (U-251): 0.0568 µM (active)
GI50 (UACC-257): 0.0356 µM (active)
GI50 (UACC-62): 0.0275 µM (active)
GI50 (UO-31): 0.442 µM (active)
GI50 (XF498): 0.356 µM (active)
